Data on 8 compounds can be found in patent US11497819B2, “PSMA ligands for imaging and endoradiotherapy” (priority 2017, dated 2022).

Values joined by “and” are separate entries in the source; they are usually repeats but may differ in a detail not shown here. Equal entries are not always repeated. Where two headings read alike, the source gives them in different places. *1 amine or outer side, *2 acyl side, *3 side chain or, on linkers, in order; H or OH if unused. Where a SMILES comes first, the peptide text is derived from it. Side-chain parts run from the residue outwards. [ ]: non-standard residue; d: D form. The star is where a group is joined. ξ: configuration not given here. ξOrn(Nα-γGlu(Nα-CO-Glu)) = O=C(O)CC[C@H](NC(=O)N[C@@H](CCC(=O)NC(CCCN*)C(=O)O)C(=O)O)C(=O)O; DOTAGA = O=C(O)CN1CCN(CC(=O)O)CCN(C(CCC(=O)*)C(=O)O)CCN(CC(=O)O)CC1; Phe(4-NO2) = N[C@@H](Cc1ccc([N+](=O)[O-])cc1)C(=O)O; X1 = O=C(c1ccc([N+](=O)[O-])cc1[N+](=O)[O-])*; d2Nal = N[C@H](Cc1ccc2ccccc2c1)C(=O)O; Suc = O=C(CCC(=O)[*:2])[*:1]; Dap = NC[C@H](N)C(=O)O

Data set [1] in a line: Lipophilicity, logP in n-octanol/PBS of radiolabeled PSMA inhibitors. Format: physicochemical. The settings on record: pH 7.4. The procedure:
The radiolabeled PSMA inhibitor (0.5 to 1.0 MBq) dissolved in PBS (500 μL, pH=7.4), was added to n-octanol (500 μL) in a reaction vial (1.5 mL), which was rigorously vortexed for 3 min (n=6). For quantitative phase separation, the mixture was centrifuged at 6,000 g for 5 min (Biofuge 15, Heraus Sepatech, Osterode, Germany). The activity from samples of each phase (100 μL) were measured in a γ-counter to obtain the log P(o/w) value.

The test system of a further data set is LNCaP cells. The experiment in a line: Internalization into LNCaP cells, relative cellular uptake to ([^125I]I-BA)KuE. The note with it: c = 1.0 nM ^177Lu-labeled inhibitor, 37° C., 60 min, corrected for non-specific binding (10 μM 2-PMPA), mean ± SD (n = 3). Format: cell-based. The procedure:
PSMA-positive LNCAP cells (300265; Cell Lines Service GmbH) were cultivated in Dulbecco modified Eagle medium/Nutrition Mixture F-12 (1/1) (DMEM-F12, Biochrom) supplemented with fetal calf serum (FCS) (10%, Biochrom) and kept at 37° C. in a humidified CO2 atmosphere (5%). One day (24 h±2 h) prior to all experiments with LNCaP cells, the cultivated cells were harvested using a mixture of trypsin/ethylendiaminetetraacetate (0.05%/0.02%) and PBS and centrifuged. After centrifugation, the supernatant was disposed and the cell pellet resuspended in culture medium. Afterwards, cells were counted with a hemocytometer (Neubauer) and seeded in 24-well plates.
Subsequent to the removal of the culture medium, the cells were washed once with DMEM-F12-solution (500 μL, 5% BSA) and left to equilibrate for at least 15 min at 37° C. in DMEM-F12-solution (200 μL, 5% BSA). Afterwards, each well was treated with either DMEM-F12-solution (25 μL, 5% BSA) or 2-PMPA-solution (25 μL, 100 μm) for blockade. […] The experiment was terminated by placing the 24-well plate on ice for 3 min and the consecutive removal of the medium. Each well was rinsed with HBSS (250 μL) and the fractions from these first two steps combined, representing the amount of free radioligand. Removal of surface bound activity was accomplished by incubation of the cells with ice-cold 2-PMPA-solution (250 μL, 10 μm in PBS) for 5 min and subsequent rinsing with ice-cold PBS (250 μL). The internalized activity was determined through incubation of the cells in NaOH (250 μL, 1.0 m) and the combination with the fraction of the subsequent washing step with again NaOH (250 μL, 1.0 m). Each experiment (control and blockade) was performed in triplicate for each time point. Free, surface bound and internalized activity was quantified in a γ-counter.

In another data set the test system is LNCaP-tumor xenograft. The experiment in a line: Biodistribution in LNCaP-tumor xenograft bearing CB-17 SCID mice. Format: in vivo. The protocol:
All animal experiments were carried out in accordance with the general animal welfare regulations in Germany (Deutsches Tierschutzgesetz, approval #55.2-1-54-2532-71-13). For the tumor model, LNCaP cells (approx. 10^7 cells) were suspended in serum-free DMEM-F12 medium and Matrigel (1/1; v/v) (BD Biosciences, Germany) and inoculated onto the right shoulder of male, 6 to 8 weeks old CB-17 SCID mice (Charles River Laboratories, Sulzfeld, Germany). Animals were used after the tumor size reached 4 to 8 mm in diameter for experiments.

The next data set deals with T1, HSA (Homo sapiens, UniProt P02768).
T1 construct: purchased Daicel Chemical Industries / Chiral Technologies Europe (Illkirch, France)
The experiment in a line: HSA binding on Chiralpak HSA column. Type of data set: in vitro ADME. The procedure: HSA binding experiments were performed as previously described. […] For each run, 10 μL of the solution containing the inhibitor was injected into the RP-HPLC system and the retention time measured. […] Non-linear regression was established with OriginPro 2016G.

Where [2] appears, read: male, CB-17 SCID, mouse, in vivo, 1 h.
The mark [3] stands for this setting: distribution coefficient in n-octanol/PBS, radiolabeled inhibitor, mean ± SD (n = 6), read-out: logP.
Where [4] appears, read: after logarithmic plotting and calibration (n = 1).

T1 sequence (P02768 25-609): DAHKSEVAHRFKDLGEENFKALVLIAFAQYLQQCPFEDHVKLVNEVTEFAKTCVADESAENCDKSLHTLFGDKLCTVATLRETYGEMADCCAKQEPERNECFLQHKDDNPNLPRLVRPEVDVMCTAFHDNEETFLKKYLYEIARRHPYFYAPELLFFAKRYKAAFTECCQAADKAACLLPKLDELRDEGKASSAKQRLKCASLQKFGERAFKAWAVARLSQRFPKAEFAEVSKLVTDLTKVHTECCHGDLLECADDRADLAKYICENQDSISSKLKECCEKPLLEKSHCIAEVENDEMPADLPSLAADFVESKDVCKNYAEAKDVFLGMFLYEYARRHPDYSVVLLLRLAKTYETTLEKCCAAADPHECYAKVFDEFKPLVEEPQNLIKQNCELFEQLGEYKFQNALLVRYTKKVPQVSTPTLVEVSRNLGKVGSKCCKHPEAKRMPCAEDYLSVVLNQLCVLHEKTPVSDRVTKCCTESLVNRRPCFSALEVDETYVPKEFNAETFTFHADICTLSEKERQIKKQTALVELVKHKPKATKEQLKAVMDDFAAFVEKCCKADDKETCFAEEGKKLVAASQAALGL

`Nc1ccc(C[C@@H](NC(=O)CCC(C(=O)O)N2CCN(CC(=O)O)CCN(CC(=O)O)CCN(CC(=O)O)CC2)C(=O)N[C@H](Cc2ccc(O)cc2)C(=O)N[C@H](Cc2ccc3ccccc3c2)C(=O)N[C@H](CCCCNC(=O)CCC(=O)NCCCC(NC(=O)CC[C@H](NC(=O)N[C@@H](CCC(=O)O)C(=O)O)C(=O)O)C(=O)O)C(=O)O)cc1` (stereo in doubt) [PSMA-49, DOTAGA-F(4-NH2)y-2-nal-k(Suc-N^5-orn-C^4-EuE)]: the logP in data set [1] was -4.01 ± 0.11. In addition, in the data set with LNCaP cells, the Internalization stood at 245.0 ± 4.2%. In the data set with LNCaP-tumor xenograft (setting [2]), this compound showed an adrenal gland of 5.66 ± 1.66 % ID/g, a blood of 0.46 ± 0.06 % ID/g, a bone of 0.29 ± 0.14 % ID/g and a brain of 0.03 ± 0.01 % ID/g. Moreover, in the data set with LNCaP-tumor xenograft (setting [2]), the heart came out at 0.57 ± 0.11 % ID/g, the intestine is listed as 0.30 ± 0.08 % ID/g, the liver turned out to be 0.99 ± 0.19 % ID/g and the lung came out at 1.47 ± 0.25 % ID/g. In addition, in the data set with LNCaP-tumor xenograft (setting [2]), the muscle is 0.17 ± 0.02 % ID/g, the pancreas is given as 0.56 ± 0.07 % ID/g, the spleen amounted to 20.53 ± 6.79 % ID/g and the stomach was found to be 0.35 ± 0.10 % ID/g. Besides, in the data set on LNCaP-tumor xenograft (setting [2]), the tumor is recorded as 8.21 ± 0.23 % ID/g, the tumor/blood is reported as 17.8, the tumor/kidney is given as 0.05 and the tumor/muscle is listed as 48.3.

In the case of `O=C(O)CC[C@H](NC(=O)N[C@@H](CCC(=O)NC(CCCNC(=O)CCC(=O)NCCCC[C@@H](NC(=O)[C@@H](Cc1ccc2ccccc2c1)NC(=O)[C@@H](Cc1ccc(O)cc1)NC(=O)CCC(C(=O)O)N1CCN(CC(=O)O)CCN(CC(=O)O)CCN(CC(=O)O)CC1)C(=O)O)C(=O)O)C(=O)O)C(=O)O` (some centres unmarked) [PSMA-46, DOTAGA-y-2-nal-k(Suc-N^5-orn-C^4-EuE)], in data set [1] (setting [3]), the log partition coefficient (logP) was -4.21 ± 0.08. In the data set with LNCaP cells, the Internalization came to 216.2 ± 9.2%. Besides, on HSA (setting [4]), the “HSA (albumin binding)” value is 57.7%.

`O=C(O)CC[C@H](NC(=O)N[C@@H](CCC(=O)NC(CCCNC(=O)CCC(=O)NCCCC[C@@H](NC(=O)[C@@H](Cc1ccc2ccccc2c1)NC(=O)[C@@H](Cc1ccc(O)cc1)NC(=O)[C@H](Cc1ccc([N+](=O)[O-])cc1)NC(=O)CCC(C(=O)O)N1CCN(CC(=O)O)CCN(CC(=O)O)CCN(CC(=O)O)CC1)C(=O)O)C(=O)O)C(=O)O)C(=O)O` (some centres unmarked) [PSMA-52, DOTAGA-F(4-NO2)-y-2-nal-k(Suc-N^5-orn-C^4-EuE)] ({DOTAGA}-[Phe(4-NO2)][dY][d2Nal][dK]([Suc-ξOrn(Nα-γGlu(Nα-CO-Glu))])-OH): the logP in data set [1] was -4.11 ± 0.07. Besides, the Internalization in the data set with LNCaP cells is given as 229.9 ± 8.0%. Also, the “HSA (albumin binding)” value at HSA (human, 0.5 mg/mL) is reported as 95.4%.

Turning to `O=C(O)CC[C@H](NC(=O)N[C@@H](CCC(=O)NC(CCCNC(=O)CCC(=O)NCCCC[C@@H](NC(=O)[C@@H](Cc1ccc2ccccc2c1)NC(=O)[C@@H](Cc1ccc(O)cc1)NC(=O)[C@H](CNC(=O)CCC(C(=O)O)N1CCN(CC(=O)O)CCN(CC(=O)O)CCN(CC(=O)O)CC1)NC(=O)c1ccc([N+](=O)[O-])cc1[N+](=O)[O-])C(=O)O)C(=O)O)C(=O)O)C(=O)O` (some centres unmarked) [PSMA-53, 2,4-DNBA-Dap(DOTAGA)-y-2-nal-k(Suc-N^5-orn-C^4-EuE)] (X1-[Dap](DOTAGA)[dY][d2Nal][dK]([Suc-ξOrn(Nα-γGlu(Nα-CO-Glu))])-OH), the logP in data set [1] (setting [3]) is -4.08 ± 0.04. Moreover, in the data set with LNCaP cells, the Internalization is 293.6 ± 10.0%. Further, the “HSA (albumin binding)” value at HSA (setting [4]) came out at 95.9%.

With `Nc1ccc(C[C@H](NC(=O)CCC(C(=O)O)N2CCN(CC(=O)O)CCN(CC(=O)O)CCN(CC(=O)O)CC2)C(=O)N[C@H](Cc2ccc(O)cc2)C(=O)N[C@H](Cc2ccc3ccccc3c2)C(=O)N[C@H](CCC(=O)Nc2ccc(C(=O)NCCCC(NC(=O)CC[C@H](NC(=O)N[C@@H](CCC(=O)O)C(=O)O)C(=O)O)C(=O)O)cc2)C(=O)O)cc1` (some centres unmarked) [PSMA-60, DOTAGA-F(4-NH2)y-2-nal-e(Abz-N^5-orn-C^4-EuE)], the logP in data set [1] is -3.85 ± 0.13. Further, in the data set on LNCaP cells, the Internalization amounted to 267.4 ± 7.9%.

Take `Nc1ccc(C[C@H](NC(=O)CCC(C(=O)O)N2CCN(CC(=O)O)CCN(CC(=O)O)CCN(CC(=O)O)CC2)C(=O)N[C@H](Cc2ccc(O)cc2)C(=O)N[C@H](Cc2ccc3ccccc3c2)C(=O)N[C@H](CCCCNC(=O)[C@@H](CC(=O)NCCCC(NC(=O)CC[C@H](NC(=O)N[C@@H](CCC(=O)O)C(=O)O)C(=O)O)C(=O)O)NC(=O)c2ccc([N+](=O)[O-])cc2[N+](=O)[O-])C(=O)O)cc1` (some centres unmarked) [PSMA-61, DOTAGA-F(4-NH2)y-2-nal-k(d[N^5-orn-C^4-EuE]-2,4-DNBA)]: the logP in data set [1] (setting [3]) was -4.07 ± 0.05. Besides, the Internalization in the data set on LNCaP cells came to 359.5 ± 22.6%. The “HSA (albumin binding)” value on HSA (setting [4]) is on record as 63.3%. Moreover, the tumor in the data set on LNCaP-tumor xenograft (1 h p.i., ^177Lu-labeled, n = 4) is recorded as 8.00±0.75 % ID/g; in the data set with LNCaP-tumor xenograft (24 h p.i., ^177Lu-labeled, n = 4), 7.70±1.35 % ID/g.

Turning to `O=C(O)CC[C@H](NC(=O)N[C@@H](CCC(=O)NC(CCCNC(=O)c1ccc(NC(=O)CC[C@@H](NC(=O)[C@@H](Cc2ccc3ccccc3c2)NC(=O)[C@@H](Cc2ccc(O)cc2)NC(=O)[C@H](CNC(=O)CCC(C(=O)O)N2CCN(CC(=O)O)CCN(CC(=O)O)CCN(CC(=O)O)CC2)NC(=O)c2ccc([N+](=O)[O-])cc2[N+](=O)[O-])C(=O)O)cc1)C(=O)O)C(=O)O)C(=O)O` (some centres unmarked) [PSMA-65, 2,4-DNBA-Dap(DOTAGA)y-2-nal-e(Abz-N^5-orn-C^4-EuE)], the logP in data set [1] (setting [3]) was -4.15 ± 0.08. Besides, the Internalization with LNCaP cells (listed as [^nat/177Lu]PSMA-65) is 340.2 ± 19.9% and 340.2 ± 18.9%. In addition, the “HSA (albumin binding)” value at HSA (after logarithmic plotting and calibration (n = 1), listed as [^nat/177Lu]PSMA-65) worked out at 98.7%.

For `Nc1ccc(C[C@H](NC(=O)CCC(C(=O)O)N2CCN(CC(=O)O)CCN(CC(=O)O)CCN(CC(=O)O)CC2)C(=O)N[C@H](Cc2ccc(O)cc2)C(=O)N[C@H](Cc2ccc3ccccc3c2)C(=O)N[C@H](CCCCNC(=O)[C@@H](CC(=O)NCCCC(NC(=O)CC[C@H](NC(=O)N[C@@H](CCC(=O)O)C(=O)O)C(=O)O)C(=O)O)NC(=O)c2cc(O)cc(O)c2)C(=O)O)cc1` (some centres unmarked) [PSMA-78, DOTAGA-F(4-NH2)y-2-nal-k(d[N^5-orn-C^4-EuE]-3,5-DHBA)], the Internalization with LNCaP cells is listed as 289.0 ± 6.2%.
